Drawing on patent publication US11746100B2 (GLOBAL BLOOD THERAPEUTICS, INC., priority 2020, dated 2023), this text covers pEC50 for 26 compounds.

The target in the assay is T1, human ferroportin (Homo sapiens, UniProt Q9NP59).
T1 construct: luciferase reporter (read with the Nano-Glo Luciferase Assay System); expressed in transfected cells; host or cells: CHO cells, stably transfected, expression induced with doxycycline
T1 sequence (Q9NP59 1-571): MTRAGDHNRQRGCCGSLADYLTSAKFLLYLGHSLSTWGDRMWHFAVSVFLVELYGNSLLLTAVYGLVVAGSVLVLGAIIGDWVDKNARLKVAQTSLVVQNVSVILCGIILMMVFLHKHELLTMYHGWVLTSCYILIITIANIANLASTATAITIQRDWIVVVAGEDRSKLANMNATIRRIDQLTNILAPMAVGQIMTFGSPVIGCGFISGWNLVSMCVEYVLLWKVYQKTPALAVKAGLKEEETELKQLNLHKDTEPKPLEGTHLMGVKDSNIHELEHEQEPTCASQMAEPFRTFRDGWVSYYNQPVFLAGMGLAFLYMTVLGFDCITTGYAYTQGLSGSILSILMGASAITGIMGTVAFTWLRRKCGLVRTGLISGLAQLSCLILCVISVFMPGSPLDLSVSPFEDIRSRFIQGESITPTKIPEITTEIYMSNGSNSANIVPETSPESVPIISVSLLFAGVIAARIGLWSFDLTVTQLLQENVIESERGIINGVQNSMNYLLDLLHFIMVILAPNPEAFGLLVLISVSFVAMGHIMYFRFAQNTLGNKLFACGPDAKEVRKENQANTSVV
Kind of assay: Biological in-vitro ferroportin internalization assay (luciferase reporter). Format: cell-based. The settings on record: average pEC50; stably-transfected CHO cell line expressing human ferroportin tagged to a luciferase reporter; 6 h incubation with test compound. The gist of the method:
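Read-out is Nano-Glo luciferase signal after 6 h compound exposure, with average pEC50 derived. Cells are a stable CHO line carrying luciferase-tagged human ferroportin, pre-loaded 24 h with ferric ammonium citrate and doxycycline-induced for 24 h.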

A word on the pEC50: it is the negative decadic logarithm of the EC50, by convention in mol/L. Higher therefore signals a low EC50.

Each structure is given as a SMILES string.

With `CN(C)CCOc1ccnc(-c2nc3c(c(N(C)CC(=O)NC(C)(C)C)n2)C(C)(C)CC3)c1` [Compound 413, N-tert-butyl-2-[(2-{4-[2-(dimethylamino)ethoxy]pyridin-2-yl}-5,5-dimethyl-5H,6H,7H-cyclopenta[d]pyrimidin-4-yl)(methyl)amino]acetamide], the negative logarithm of the EC50 (pEC50) is 8. As for `CN(CC(=O)NC(C)(C)C)c1nc(-c2cc(OC[C@@H]3COC(C)(C)O3)ccn2)nc2c1CCC2` [Compound 414, N-tert-butyl-2-{[2-(4-{[(4R)-2,2-dimethyl-1,3-dioxolan-4-yl]methoxy}pyridin-2-yl)-5H,6H,7H-cyclopenta[d]pyrimidin-4-yl](methyl)amino}acetamide], the negative-log EC50 (pEC50) was 8.3.

`CN1CC(Oc2ccnc(-c3nc4c(c(N(C)CC(=O)NC(C)(C)C)n3)CCC4)c2)C1` [Compound 416, N-tert-butyl-2-[methyl(2-{4-[(1-methylazetidin-3-yl)oxy]pyridin-2-yl}-5H,6H,7H-cyclopenta[d]pyrimidin-4-yl)amino]acetamide] gave a negative-log EC50 (pEC50) of 8. The compound `CN(C)CCOc1ccnc(-c2nc3c(c(N(C)CC(=O)N4CCCC4)n2)CCC3)c1` [Compound 417, 2-[(2-{4-[2-(dimethylamino)ethoxy]pyridin-2-yl}-5H,6H,7H-cyclopenta[d]pyrimidin-4-yl)(methyl)amino]-1-(pyrrolidin-1-yl)ethan-1-one] registered a negative logarithm of the EC50 (pEC50) of 7.1.

`CN(C)CCOc1ccnc(-c2nc3c(c(N(C)CC(=O)NC4(C(F)(F)F)CC4)n2)CCC3)c1` [Compound 418, 2-[(2-{4-[2-(dimethylamino)ethoxy]pyridin-2-yl}-5H,6H,7H-cyclopenta[d]pyrimidin-4-yl)(methyl)amino]-N-[1-(trifluoromethyl)cyclopropyl]acetamide] displayed a pEC50 of 7.5.

As to `CNCCOc1ccnc(-c2nc3c(c(N(C)CC(=O)NC(C)(C)C)n2)CCC3)c1` [Compound 419, N-tert-butyl-2-[methyl(2-{4-[2-(methylamino)ethoxy]pyridin-2-yl}-5H,6H,7H-cyclopenta[d]pyrimidin-4-yl)amino]acetamide], the negative-log EC50 (pEC50) was 7.6. Regarding `CN(CC(=O)N1CCCC1)c1nc(-c2cc(OCC(C)(C)O)ccn2)nc2c1CCC2` [Compound 420, 2-({2-[4-(2-hydroxy-2-methylpropoxy)pyridin-2-yl]-5H,6H,7H-cyclopenta[d]pyrimidin-4-yl}(methyl)amino)-1-(pyrrolidin-1-yl)ethan-1-one], the pEC50 worked out at 8. `CN(CC(=O)NC1CCCC1)c1nc(-c2cc(OCC(C)(C)O)ccn2)nc2c1CCC2` [Compound 421, N-cyclopentyl-2-({2-[4-(2-hydroxy-2-methylpropoxy)pyridin-2-yl]-5H,6H,7H-cyclopenta[d]pyrimidin-4-yl}(methyl)amino)acetamide] had a pEC50 of 8.2. As for `CN(CC(=O)N[C@@H]1CCOC1)c1nc(-c2cc(OCC(C)(C)O)ccn2)nc2c1CCC2` [Compound 422, 2-({2-[4-(2-hydroxy-2-methylpropoxy)pyridin-2-yl]-5H,6H,7H-cyclopenta[d]pyrimidin-4-yl}(methyl)amino)-N-[(3R)-oxolan-3-yl]acetamide], the figure is 7.4; as for `CN(CC(=O)NC1(C(F)(F)F)CC1)c1nc(-c2cc(OCC(C)(C)N(C)C)ccn2)nc2c1CCC2` [Compound 423, 2-[(2-{4-[2-(dimethylamino)-2-methylpropoxy]pyridin-2-yl}-5H,6H,7H-cyclopenta[d]pyrimidin-4-yl)(methyl)amino]-N-[1-(trifluoromethyl)cyclopropyl]acetamide], 7.7. For `CN(C)CCOc1ccnc(-c2nc3c(c(N(C)CC(=O)N[C@@H]4CCOC4)n2)CCC3)c1` [Compound 424, 2-[(2-{4-[2-(dimethylamino)ethoxy]pyridin-2-yl}-5H,6H,7H-cyclopenta[d]pyrimidin-4-yl)(methyl)amino]-N-[(3R)-oxolan-3-yl]acetamide] the value was 7. As for `CN(CC(=O)NC(C)(C)C)c1nc(-c2cc(OC(C)(C)CO)ccn2)nc2c1CCC2` [Compound 425, N-tert-butyl-2-[(2-{4-[(1-hydroxy-2-methylpropan-2-yl)oxy]pyridin-2-yl}-5H,6H,7H-cyclopenta[d]pyrimidin-4-yl)(methyl)amino]acetamide], the figure is 8.3; as for `CN(CC(=O)NC(C)(C)C)c1nc(-c2cc(OCC(O)C(F)(F)F)ccn2)nc2c1CCC2` (centres unmarked) [Compound 426, N-tert-butyl-2-[methyl({2-[4-(3,3,3-trifluoro-2-hydroxypropoxy)pyridin-2-yl]-5H,6H,7H-cyclopenta[d]pyrimidin-4-yl})amino]acetamide], 8.4; as for `Cc1cc(OCCO)cc(-c2nc3c(c(N(C)CC(=O)NC(C)(C)C)n2)CCC3)n1` [Compound 427, N-tert-butyl-2-({2-[4-(2-hydroxyethoxy)-6-methylpyridin-2-yl]-5H,6H,7H-cyclopenta[d]pyrimidin-4-yl}(methyl)amino)acetamide], 7.6. With `CC(C)NC(=O)CN(C)c1nc(-c2cc(OCCN(C)C)ccn2)nc2c1CCC2` [Compound 428, 2-[(2-{4-[2-(dimethylamino)ethoxy]pyridin-2-yl}-5H,6H,7H-cyclopenta[d]pyrimidin-4-yl)(methyl)amino]-N-(propan-2-yl)acetamide], the pEC50 came to 7.5. For `CC(C)NC(=O)CN(C)c1nc(-c2cc(OCCN3CCCC3)ccn2)nc2c1CCC2` [Compound 429, 2-[methyl(2-{4-[2-(pyrrolidin-1-yl)ethoxy]pyridin-2-yl}-5H,6H,7H-cyclopenta[d]pyrimidin-4-yl)amino]-N-(propan-2-yl)acetamide] the value was 8; for `CC(C)NC(=O)CN(C)c1nc(-c2cc(OCCN3CCOCC3)ccn2)nc2c1CCC2` [Compound 430, 2-[methyl(2-{4-[2-(morpholin-4-yl)ethoxy]pyridin-2-yl}-5H,6H,7H-cyclopenta[d]pyrimidin-4-yl)amino]-N-(propan-2-yl)acetamide], 8. For `CC(C)NC(=O)CN(C)c1nc(-c2cc(OCC3(O)CC3)ccn2)nc2c1CCC2` [Compound 431, 2-[(2-{4-[(1-hydroxycyclopropyl)methoxy]pyridin-2-yl}-5H,6H,7H-cyclopenta[d]pyrimidin-4-yl)(methyl)amino]-N-(propan-2-yl)acetamide] the value was 7.4; for `CC(C)NC(=O)CN(C)c1nc(-c2cc(OCCN3CCN(C)CC3)ccn2)nc2c1CCC2` [Compound 432, 2-[methyl(2-{4-[2-(4-methylpiperazin-1-yl)ethoxy]pyridin-2-yl}-5H,6H,7H-cyclopenta[d]pyrimidin-4-yl)amino]-N-(propan-2-yl)acetamide], 7.5; for `CC(C)NC(=O)[C@@H](C)N(C)c1nc(-c2cc(OCCN(C)C)ccn2)nc2c1CCC2` [Compound 433, (2R)-2-[(2-{4-[2-(dimethylamino)ethoxy]pyridin-2-yl}-5H,6H,7H-cyclopenta[d]pyrimidin-4-yl)(methyl)amino]-N-(propan-2-yl)propanamide], 8.0. For `CC(C)NC(=O)[C@H](C)N(C)c1nc(-c2cc(OCCN(C)C)ccn2)nc2c1CCC2` [Compound 434, (2S)-2-[(2-{4-[2-(dimethylamino)ethoxy]pyridin-2-yl}-5H,6H,7H-cyclopenta[d]pyrimidin-4-yl)(methyl)amino]-N-(propan-2-yl)propanamide] the value was 7.4. For the compound `CC(C)NC(=O)CN(C)c1nc(-c2cc(OCCN(C)C)ccn2)nc2c1C(C)(C)CC2` [Compound 435, 2-[(2-{4-[2-(dimethylamino)ethoxy]pyridin-2-yl}-5,5-dimethyl-5H,6H,7H-cyclopenta[d]pyrimidin-4-yl)(methyl)amino]-N-(propan-2-yl)acetamide], the negative logarithm of the EC50 (pEC50) is 7.8. Take `CC(C)NC(=O)CN(C)c1nc(-c2cc(OCCN3CCOCC3=O)ccn2)nc2c1CCC2` [Compound 436, 2-[methyl(2-{4-[2-(3-oxomorpholin-4-yl)ethoxy]pyridin-2-yl}-5H,6H,7H-cyclopenta[d]pyrimidin-4-yl)amino]-N-(propan-2-yl)acetamide]: the negative logarithm of the EC50 (pEC50) was 7.3. The compound `CN1CC[C@@H](Oc2ccnc(-c3nc4c(c(N(C)CC(=O)NC(C)(C)C)n3)CCC4)c2)C1` [Compound 437, N-tert-butyl-2-{methyl[2-(4-{[(3R)-1-methylpyrrolidin-3-yl]oxy}pyridin-2-yl)-5H,6H,7H-cyclopenta[d]pyrimidin-4-yl]amino}acetamide] displayed a pEC50 of 8.0. In turn, `CN1CC[C@H](Oc2ccnc(-c3nc4c(c(N(C)CC(=O)NC(C)(C)C)n3)CCC4)c2)C1` [Compound 438, N-tert-butyl-2-{methyl[2-(4-{[(3S)-1-methylpyrrolidin-3-yl]oxy}pyridin-2-yl)-5H,6H,7H-cyclopenta[d]pyrimidin-4-yl]amino}acetamide] showed a pEC50 of 7.7. Turning to `CC(C)NC(=O)CN(C)c1nc(-c2cc(OCC(C)(C)O)ccn2)nc2c1C(C)(C)CC2` [Compound 439, 2-({2-[4-(2-hydroxy-2-methylpropoxy)pyridin-2-yl]-5,5-dimethyl-5H,6H,7H-cyclopenta[d]pyrimidin-4-yl}(methyl)amino)-N-(propan-2-yl)acetamide], the pEC50 was 7.8.
